One data set addresses T1, 5-HT3 serotonin receptor (Homo sapiens, UniProt P46098).
T1 sequence (P46098 24-478): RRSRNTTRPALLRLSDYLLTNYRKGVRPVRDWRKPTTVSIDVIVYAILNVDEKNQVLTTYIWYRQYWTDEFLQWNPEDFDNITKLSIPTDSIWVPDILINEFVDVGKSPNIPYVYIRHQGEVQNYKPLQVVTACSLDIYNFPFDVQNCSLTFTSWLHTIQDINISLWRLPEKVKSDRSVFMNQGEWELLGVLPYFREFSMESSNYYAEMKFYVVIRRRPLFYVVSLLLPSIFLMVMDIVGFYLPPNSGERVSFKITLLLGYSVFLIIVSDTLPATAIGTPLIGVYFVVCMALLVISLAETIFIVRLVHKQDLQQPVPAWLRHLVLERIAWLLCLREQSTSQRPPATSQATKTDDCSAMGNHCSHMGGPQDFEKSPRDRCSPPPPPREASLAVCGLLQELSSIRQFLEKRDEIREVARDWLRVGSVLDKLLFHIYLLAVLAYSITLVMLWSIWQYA
The settings on record: Nebrisi et al. 2020, Front. Pharmacol. 11:1274; cited from earlier work.

A short description of data set [1]: Stability of Nanoemulsion Concentrate 3 (α-tocopherol and Vitamin B12 content) by LCMSMS. The settings on record: for Stability of Vitamin B12 in Nanoemulsion Concentrate 3: average of triplicate. The data set is classed as physicochemical. How it is done: At each time period (0, 7, 28, 60, 120, 150 and 180 days), triplicate samples were analysed for content of α-tocopherol and Vitamin B12.
(FIGS. 14 and 15, Table 13). Data reported in Table 13 and plotted in FIGS. 14 and 15 are average values of the triplicate measurements taken.

For `COc1cc(CNC(=O)CCCC/C=C/C(C)C)ccc1O` [capsaicin], the “mode of action at the 5-HT3 serotonin receptor” value at 5-HT3 serotonin receptor is “negative allosteric modulator”.

Take Vitamin B12: the “Stability of Vitamin B12 in Nanoemulsion Concentrate 3” value (shortened to “Stability of Vitamin B12”) amounted to 28.67 ng/mL in data set [1] (Refrigerated (2-4° C.), 0 days); 30.33 ng/mL in data set [1] (Refrigerated (2-4° C.), 7 days); 29.33 ng/mL in data set [1] (Refrigerated (2-4° C.), 28 days); 30.00 ng/mL in data set [1] (Refrigerated (2-4° C.), 60 days); 32.00 ng/mL in data set [1] (Refrigerated (2-4° C.), 120 days); 29.67 ng/mL in data set [1] (Refrigerated (2-4° C.), 150 days). Moreover, the “Stability of Vitamin B12” value was 32.50 ng/mL in data set [1] (Refrigerated (2-4° C.), 180 days); 28.67 ng/mL in data set [1] (Room Temperature (21-25° C.), 0 days); 24.00 ng/mL in data set [1] (Room Temperature (21-25° C.), 7 days); 22.67 ng/mL in data set [1] (Room Temperature (21-25° C.), 28 days); 22.67 ng/mL in data set [1] (Room Temperature (21-25° C.), 60 days); 19.67 ng/mL in data set [1] (Room Temperature (21-25° C.), 120 days). Also, the “Stability of Vitamin B12” value in data set [1] (Room Temperature (21-25° C.), 150 days) worked out at 19.00 ng/mL; in data set [1] (Room Temperature (21-25° C.), 180 days) it was 16.50 ng/mL. The “stability in Nanoemulsion Concentrate 3 (in words)” value was “some slight degradation” in data set [1] (after 180 days stored at 21-25° C.) and “high degree of stability” in data set [1] (stored at 2-4° C., 180 days).

(Values after patent US20260130395A1, “Water Dispersible Botanical Compositions” (Aquila Black Limited, priority 2021, published 2026).)
